Experiments:
[1] = UV-vis quality control: catalyst in the aqueous phase after phase separation; format: physicochemical; settings: UV spectrum 10 seconds after mixing, no signal seen
Description: A UV spectrum was recorded to monitor the amount of catalyst present in the aqueous phase 10 seconds after mixing. As detailed in Figure S98 no signal is seen which places an upper limit of 1.5×10^−6 mol dm^−3 on the iridium concentration based on [Ir(H)2(IMes)(pz)3]Cl. The sample used mimicked that of 5.1.

[2] = Solubility in water and organic solvent (stated); settings: for solubility in organic solvent: CD3Cl or CD2Cl2
[3] = UV monitoring of pz transfer from aqueous phase into chloroform, with and without NaCl; format: physicochemical; settings: H2O layered over equivalent volume of CHCl3
Description: Relative rates of pz transfer from the aqueous phase into chloroform were assessed, with, and without NaCl, by UV monitoring as detailed in Figure S100. This involved layering a sample of H2O containing pyrazine over an equivalent volume of CHCl3 that contained no pz.

solubility in water / D2O [2] | solubility in organic solvent [2] | Molecule | other results
– | – | [Ir(H)2(IMes)(pz)3]Cl | upper limit on iridium concentration in the aqueous phase [1]: ≤ 1.5×10^−6 mol dm^−3
full water soluble | partially soluble in organic solvent | [2H]c1cc([2H])c(C(N)=O)cn1 [d2-nicotinamide] | –
partially soluble in D2O phase | fully soluble in CD3Cl phase | [2H]c1cc([2H])c(C(=O)OC)cn1 [d2-methylnicotinate] | –
– | – | c1cnccn1 [pyrazine] | rate of transfer between the phases, effect of NaCl [3]: increase the rate of pz transfer between the phases; relative partitioning between aqueous phase and chloroform, effect of NaCl [3]: unaffected by added NaCl

Molecule | solubility in water / D2O [2] | solubility in organic solvent [2] | other results
Fc1cccnc1 [3-fluoropyridine] | – | highly soluble in organic solvent | –
Nc1ccncc1 [4-aminopyridine] | fully water soluble | – | –

Reference: patent US12350350B2, “Hyperpolarisation in aqueous media via sabre” (UNIVERSITY OF YORK, priority 2017, dated 2025)
